Laboratory results: patent publication US20210198313A1, “METHOD OF PRODUCING IMIDAZOLE DIPEPTIDES” (Tokai Bussan Co., Ltd., priority 2019, published 2021)

What was measured:
[1] = Titration of 0.1 M aqueous solutions with 0.1 N sulfuric acid and 0.1 N sodium hydroxide to determine dissociation constants and charge state; format: physicochemical
Text: In view of the difference between the adsorption behaviors of imidazole dipeptides, including anserine and carnosine, and creatinine on a strongly acidic cation exchange resin, each electrical dissociation behavior of the compounds with respect to pH values was experimentally measured by the titration method as mentioned below. The terms “pK” and “pI” are the dissociation constant and the isoelectric point, respectively.
The 0.1 M aqueous solutions of L-anserine, L-carnosine and creatinine were prepared and the titration curves were generated with 0.1 N sulfuric acid and 0.1 N sodium hydroxide according to known methods. From each titration curve, pK1, pKR and pK2 were determined.
In Table 1, with respect to anserine and carnosine, pK1 represents the dissociation of carboxyl group, pKR represents the dissociation of imidazole group, and pK2 represents the dissociation of amino group. With respect to creatinine, pKR represents the dissociation of imidazole group.
Based on the measured results, the state of the charge of anserine, carnosine and creatinine at each pH value is shown in FIG. 1.

[2] = cited from earlier work
[3] = Dissociation constants disclosed in published references; format: physicochemical; conditions: converted from literature pKb 9.20
Text: For example, Bate-Smith (Bate-Smith, E. C., J. Physiol. (London) 92, 336 (1938)) discloses the results that pK2 of carnosine was 6.83, and Doutsch et al. (Dutch, A., Eggleton, P., Biochem. J. 32, 209 (1938)), discloses the results that pK2 of anserin was 7.04. In these references, pK2 means the dissociation constant of imidazole group and corresponds to pKR in Table 1. […] If converted to pKR, it is 4.8. Thus, each pKR for anserine, carnosine and creatinine in Table 1 was well consistent with the data described in the references.

[4] = 0.1 M aqueous solution, titration curve

Row | Compound | pI (isoelectric point) [1, 4] | pK1 (dissociation of carboxyl group) [1, 4] | pK2 (dissociation of amino group) [1, 4] | pKR (dissociation of imidazole group) [1, 4] | positive charge ([1]; pH 5, FIG. 1) | positive charge ([1]; pH 7, FIG. 1) | positive charge ([1]; pH 8, FIG. 1) | pK2 (dissociation constant of imidazole group, corresponds to pKR in Table 1) ([2]; literature (Bate-Smith 1938; Deutsch and Eggleton 1938)) | pKb ([2]; literature (Eadie and Hunter 1926)) | pKR converted from pKb [3]
1 | NCCC(=O)N[C@@H](Cc1c[nH]cn1)C(=O)O [Carnosine, β-alanyl histidine] | 8.3 | 2.8 | 9.8 | 6.8 | 1 valent | 0.5 valent | 0.1 valent | 6.83 | – | –
2 | CN1CC(=O)NC1=N [Creatinine, creatinine] | – | – | – | – | – | – | – | – | 9.20 | 4.8
